{"source": "paper PMC8297771", "about": "(PLoS Pathogens, 2021)", "key": {"HIV-1_89.6": {"tested_on": "HIV-1_89.6", "assay": "In vitro anti-viral assay in CEMx174 cells (p24)", "format": "cell-based", "experimental": "CEMx174 cells were infected with HIV-1 primary isolate 89.6 (From infectious clone p89.6, NIH AIDS Reagent Program) at approximately at 10% of cell population determined by FACS analyses. To determine antiviral activity during virus production, STP0404 was added at concentration in the range of 0.1 nM—10 μM during media exchange at 4 hrs post-infection. DMSO was used as a negative control. Cell-free supernatants were measured for p24 antigen production, 5 days post-infection. The anti-HIV-1 efficacy of the two enantiomers of STP0404 were also determined by using the same protocol. All assays were conducted in triplicates. The IC50 values were computed using GraphPad Prism (Version 9) and presented as means ± S.D. of the triplicates. For SIVmac239, CEMx174 cells were infected with viral supernatant containing SIVmac293 at 50,000 TCID50/mL (kind gift from Dr. G. Silvestri, Emory Yerkes National Primate Research Center) with 100 μL/10^6 cells at varying concentrations of STP0404, BI224436, and Raltegravir, and the same above protocol was followed except for that p27 capsid antigen content was measured daily for 5 days post infection."}, "[1]": {"tested_on": "HIV-1_89.6 passage 14 viral population (Y99H and A128T)", "assay": "Susceptibility of STP0404-selected viral population, passage 14, in CEMx174 cells", "format": "cell-based", "conditions": "passage 14 viral population (Y99H and A128T) vs wild type HIV-1_89.6", "experimental": "CEM x174 cells infected with HIV primary isolate 89.6 were cultured in the presence of STP0404 at the concentration of IC90 determined earlier. At each passage, cells from original culture in the presence of inhibitor (0.75x10^6 cells) were mixed with equal amount of no-drug control cells to propagate, and viral replication was monitored by the production of p24 antigen in the supernatant. […] The population of drug-induced mutations at each passage mentioned above was determined by sequencing of at least 10 resulting transformants.\nCEM x174 cells were infected with cell-free viral supernatant collected during virus resistance assays above. […] The viral stocks were normalized by the amount of p24 capsid antigen, determined to infect CEMx174 cells at approximately 10% of populations (10,000 pg / 10^6 cells). […] Cell-free supernatants were measured for p24 antigen production 5 days post-infection. p89.6 plasmid was applied for Quickchange kit (Invitrogen) to create Y99H single, A128T single, Y99H/A128T double mutants as well as two natural variants (A124N and T125A), and these 89.6 variant viruses were generated by transfecting 293T cells and culturing the produced viruses in CEMx174 cells. The IC50 of STP0404 against respective viruses were analyzed using GraphPad Prism (Version 9) and presented as means ± S.D. of triplicates. […]"}, "[2]": {"tested_on": "HIV-1 GFP vector in pre-treated Jurkat cells", "assay": "HIV-1 inhibition in infecting cells (early stage)", "format": "cell-based", "conditions": "60 nM in Jurkat cells; vector from untreated 293T cells", "experimental": "To test for STP0404’s inhibitory effects during the late stage of HIV-1 life cycle such as the maturation step, we employed the “producing cells” setup. In T75 tissue culture flasks, 293T cells were pre-treated with and without STP0404 (0 and 60 nM) for 2 hrs prior to transfection with pD3-HIV (13 μg) and pVSV-g (6 μg), using 0.3 mg/ml polyethylenimine. After 24 hrs incubation at 37°C, the supernatant was removed and replaced with fresh media with and without STP0404 (0 and 60 nM). 48 hrs later, D3-HIV vector from each treatment group was concentrated from the collected supernatant via ultracentrifugation (22,000 rpm for 2 hrs). Following p24 quantification, using 96-well plates, similar amount of respective D3-HIV vector was used to transduce Jurkat cells in triplicates for 48 hrs. The cells were harvested and fixed with 3.7% formaldehyde before being analyzed for GFP expression using FACS (Miltenyi Biotec, VYB). Separately, the “infecting cells” setup was used to investigate the inhibitory effects of STP0404 against the early stages of HIV-1 life cycle such as the integration and transcription steps. […] All data were analyzed using GraphPad Prism (Version 9). Unpaired t tests were performed to determine the significance of the readings in respective experimental set up relative to the untreated controls. […]"}, "[3]": {"assay": "Plasma protein binding (equilibrium dialysis)", "format": "in vitro ADME", "conditions": "Sprague-Dawley (rat), beagle (dog), cynomolgus monkey, pH 7.4, monkey and human plasma, read-out: In vitro protein binding", "experimental": "The current study utilized the 96-well equilibrium dialysis device purchased from HTDialysis to dialyze the test compound and the control compound at 2 μM in plasma at 37±1°C for 4 hrs. Plasma prepared from Sprague-Dawley rats, beagle dog, cynomolgus monkey and humans were previously frozen at below -60°C. The dialysis membrane strips were soaked in ultra-pure water at room temperature for approximately 1 hr. After that, each membrane strip that contains 2 membranes was separated and soaked in ethanol:water (20,80 v,v) for approximately 20 mins, after which it was ready for use or was stored in the solution at 2–8°C for up to a month. Prior to the experiment, the membrane was rinsed and soaked for 20 mins in ultra-pure water. On the day of experiment, the plasma from Sprague-Dawley rats, beagle dogs, cynomolgus monkey and humans was thawed under running cold tap water and centrifuged at 3220×g for 5 mins to remove any clots and the pH value of the resulting plasma will be checked. if required, adjusted to 7.4 ± 0.1. All samples were further processed by protein precipitation for LC/MS/MS analysis (Wuxi AppTec, China)."}, "[4]": {"conditions": "Human immunodeficiency virus 1, CEMx174"}}, "data": [{"compound": "Cc1nc2c(c(C)c(C)n2Cc2cnn(C)c2)c(-c2ccc(Cl)cc2)c1[C@H](OC(C)(C)C)C(=O)O", "note": "[STP0404]", "values": [{"measurement": "TI (TC50 / IC50)", "setting": "HIV-1_89.6; HIV-1 89.6 / CEMx174 cells", "value": "> 7,140"}, {"measurement": "IC50", "setting": "HIV-1_89.6; [4]", "value": 0.0014, "unit": "µM"}, {"measurement": "IC90", "setting": "HIV-1_89.6; [4]", "value": 0.021, "unit": "µM"}, {"measurement": "IC50 fold increase", "setting": "[1]", "value": 61.4, "unit": "fold"}, {"measurement": "transduction efficiency, infecting cells", "setting": "[2]", "value": "no reduction in transduction efficiency"}, {"measurement": "fraction unbound at 4 h, 2 μM", "setting": "[3]", "value": "0.003 to 0.061"}]}]}
